Here are results for 1 compound from patent publication US4965280A, “Antifungal carbinols” (E. I. Du Pont de Nemours and Company, priority 1989, dated 1990).

The assay deals with CMN PURSLANE
Put plainly: Test F. The format is in vivo, Portulaca oleracea. The source says: Weed species were planted 3 or 4 per 15-cm diameter pot in Sassafras sandy loam (pH 6.8; 1% OM). Cotton was planted separately in the same sized pot. Postemergence plantings were made 12-16 days prior to treating so plants were in the 2- to 3-leaf stage (5-12 cm tall). Preemergence plantings were made the day before treating. Compounds were sprayed in a suitable non-phytotoxic solvent at 374 l/ha, then after 3 weeks of growth in a greenhouse, plant responses were visually rated on a percent scale where 0=no injury and 100=plant death.

On to `C=C(c1ccc(F)cc1)C(O)(Cn1cncn1)c1ccc(F)cc1F` (centres unmarked) [Example 4, 2-(2,4-Difluorophenyl)-3-(4-fluorophenyl)-1-(1H-1,2,4-triazol-1-yl)-3-buten-2-ol], for which the plant response (PREEMERGENCE 0032 GM/HA) is given as 0%; the plant response (PREEMERGENCE 0064 GM/HA) came to 20%; the plant response (PREEMERGENCE 0125 GM/HA) worked out at 30%; the plant response (PREEMERGENCE 0250 GM/HA) was found to be 30%; the plant response (PREEMERGENCE 0500 GM/HA) amounted to 80%.
